Calls of active or inactive are those of the source. No cut-off for these calls is given here.
Experiments:
Mus musculus [1] = test: Anticonvulsant activity in Carworth farms No.1 albino mouse assessed as protection against maximum electroshock at 30 mg/kg, ip measured after 0.5 hrs; assay type: functional, organism-based; parameters: dose 30 mg/kg
Mus musculus [2] = test: Anticonvulsant activity in Carworth farms No.1 albino mouse assessed as protection against maximum electroshock at 100 mg/kg, ip measured after 0.5 hrs; assay type: functional, organism-based; parameters: dose 100 mg/kg
Mus musculus [3] = test: Anticonvulsant activity in Carworth farms No.1 albino mouse assessed as protection against maximum electroshock at 300 mg/kg, ip measured after 0.5 hrs; assay type: functional, organism-based; parameters: dose 300 mg/kg
Mus musculus [4] = test: Anticonvulsant activity in Carworth farms No.1 albino mouse assessed as protection against maximum electroshock at 30 mg/kg, ip measured after 4 hrs; assay type: functional, organism-based; parameters: dose 30 mg/kg
Mus musculus [5] = test: Anticonvulsant activity in Carworth farms No.1 albino mouse assessed as protection against maximum electroshock at 100 mg/kg, ip measured after 4 hrs; assay type: functional, organism-based; parameters: dose 100 mg/kg
Mus musculus [6] = test: Anticonvulsant activity in Carworth farms No.1 albino mouse assessed as protection against maximum electroshock at 300 mg/kg, ip measured after 4 hrs; assay type: functional, organism-based; parameters: dose 300 mg/kg
Mus musculus [7] = test: Anticonvulsant activity in Carworth farms No.1 albino mouse assessed as protection against subcutaneous metrazole-induced seizures at 30 mg/kg, ip measured after 0.5 hrs; assay type: functional, organism-based; parameters: dose 30 mg/kg
Mus musculus [8] = test: Anticonvulsant activity in Carworth farms No.1 albino mouse assessed as protection against subcutaneous metrazole-induced seizures at 100 mg/kg, ip measured after 0.5 hrs; assay type: functional, organism-based; parameters: dose 100 mg/kg
Mus musculus [9] = test: Anticonvulsant activity in Carworth farms No.1 albino mouse assessed as protection against subcutaneous metrazole-induced seizures at 300 mg/kg, ip measured after 0.5 hrs; assay type: functional, organism-based; parameters: dose 300 mg/kg
Mus musculus [10] = test: Anticonvulsant activity in Carworth farms No.1 albino mouse assessed as protection against subcutaneous metrazole-induced seizures at 30 mg/kg, ip measured after 4 hrs; assay type: functional, organism-based; parameters: dose 30 mg/kg
Mus musculus [11] = test: Anticonvulsant activity in Carworth farms No.1 albino mouse assessed as protection against subcutaneous metrazole-induced seizures at 100 mg/kg, ip measured after 4 hrs; assay type: functional, organism-based; parameters: dose 100 mg/kg
Mus musculus [12] = test: Anticonvulsant activity in Carworth farms No.1 albino mouse assessed as protection against subcutaneous metrazole-induced seizures at 300 mg/kg, ip measured after 4 hrs; assay type: functional, organism-based; parameters: dose 300 mg/kg
Mus musculus [13] = test: Neurotoxicity in Carworth farms No.1 albino mouse assessed as neurological impairment at 30 mg/kg, ip measured after 0.5 hrs; assay type: toxicity, organism-based; parameters: dose 30 mg/kg, route intraperitoneal; conditions: in vivo
Mus musculus [14] = test: Neurotoxicity in Carworth farms No.1 albino mouse assessed as neurological impairment at 100 mg/kg, ip measured after 0.5 hrs; assay type: toxicity, organism-based; parameters: dose 100 mg/kg, route intraperitoneal; conditions: in vivo
Mus musculus [15] = test: Neurotoxicity in Carworth farms No.1 albino mouse assessed as neurological impairment at 30 mg/kg, ip measured after 4 hrs; assay type: toxicity, organism-based; parameters: dose 30 mg/kg, route intraperitoneal; conditions: in vivo
Mus musculus [16] = test: Neurotoxicity in Carworth farms No.1 albino mouse assessed as neurological impairment at 100 mg/kg, ip measured after 4 hrs; assay type: toxicity, organism-based; parameters: dose 100 mg/kg, route intraperitoneal; conditions: in vivo
Mus musculus [17] = test: Neurotoxicity in Carworth farms No.1 albino mouse assessed as neurological impairment at 300 mg/kg, ip measured after 4 hrs; assay type: toxicity, organism-based; parameters: dose 300 mg/kg, route intraperitoneal; conditions: in vivo
Mus musculus [18] = test: Neurotoxicity in Carworth farms No.1 albino mouse assessed as inability to grasp rotarod at 300 mg/kg, ip measured after 0.5 hrs; assay type: toxicity, organism-based; parameters: dose 300 mg/kg, route intraperitoneal; conditions: in vivo
Mus musculus [19] = test: Anticonvulsant activity in ip dosed Carworth farms No.1 albino mouse assessed as protection against maximum electroshock; assay type: functional
Mus musculus [20] = test: Anticonvulsant activity in ip dosed Carworth farms No.1 albino mouse assessed as protection against subcutaneous metrazole-induced seizures; assay type: functional
[21] = Neurotoxicity in ip dosed Carworth farms No.1 albino mouse assessed as inability to grasp rotarod measured after 0.25 hrs; assay type: toxicity, organism-based; conditions: in vivo
Rattus norvegicus [22] = test: Anticonvulsant activity in Sprague-Dawley rat assessed as protection against maximum electroshock at 30 mg/kg, po measured after 0.25 hrs; assay type: functional, organism-based; parameters: dose 30 mg/kg
Rattus norvegicus [23] = test: Anticonvulsant activity in Sprague-Dawley rat assessed as protection against maximum electroshock at 30 mg/kg, po measured after 0.5 hrs; assay type: functional, organism-based; parameters: dose 30 mg/kg
Rattus norvegicus [24] = test: Anticonvulsant activity in Sprague-Dawley rat assessed as protection against maximum electroshock at 30 mg/kg, po measured after 1 hr; assay type: functional, organism-based; parameters: dose 30 mg/kg
Rattus norvegicus [25] = test: Anticonvulsant activity in Sprague-Dawley rat assessed as protection against maximum electroshock at 30 mg/kg, po measured after 2 hrs; assay type: functional, organism-based; parameters: dose 30 mg/kg
Rattus norvegicus [26] = test: Anticonvulsant activity in Sprague-Dawley rat assessed as protection against maximum electroshock at 30 mg/kg, po measured after 4 hrs; assay type: functional, organism-based; parameters: dose 30 mg/kg
Rattus norvegicus [27] = test: Neurotoxicity in Sprague-Dawley rat assessed as neurological impairment at 30 mg/kg, po measured after 0.25 hrs; assay type: toxicity, organism-based; parameters: dose 30 mg/kg, route oral; conditions: in vivo
Rattus norvegicus [28] = test: Neurotoxicity in Sprague-Dawley rat assessed as neurological impairment at 30 mg/kg, po measured after 0.5 hrs; assay type: toxicity, organism-based; parameters: dose 30 mg/kg, route oral; conditions: in vivo
Rattus norvegicus [29] = test: Neurotoxicity in Sprague-Dawley rat assessed as neurological impairment at 30 mg/kg, po measured after 1 hr; assay type: toxicity, organism-based; parameters: dose 30 mg/kg, route oral; conditions: in vivo
Rattus norvegicus [30] = test: Neurotoxicity in Sprague-Dawley rat assessed as neurological impairment at 30 mg/kg, po measured after 2 hrs; assay type: toxicity, organism-based; parameters: dose 30 mg/kg, route oral; conditions: in vivo
Rattus norvegicus [31] = test: Neurotoxicity in Sprague-Dawley rat assessed as neurological impairment at 30 mg/kg, po measured after 4 hrs; assay type: toxicity, organism-based; parameters: dose 30 mg/kg, route oral; conditions: in vivo
Mus musculus [32] = test: Anticonvulsant activity in Carworth farms No.1 albino mouse assessed as protection against 6 Hz electric current-induced seizure at 100 mg/kg, ip measured after 0.25 hrs; assay type: functional, organism-based; parameters: dose 100 mg/kg
Mus musculus [33] = test: Anticonvulsant activity in Carworth farms No.1 albino mouse assessed as protection against 6 Hz electric current-induced seizure at 100 mg/kg, ip measured after 0.5 hrs; assay type: functional, organism-based; parameters: dose 100 mg/kg
Mus musculus [34] = test: Anticonvulsant activity in Carworth farms No.1 albino mouse assessed as protection against 6 Hz electric current-induced seizure at 100 mg/kg, ip measured after 1 hrs; assay type: functional, organism-based; parameters: dose 100 mg/kg
Mus musculus [35] = test: Anticonvulsant activity in Carworth farms No.1 albino mouse assessed as protection against 6 Hz electric current-induced seizure at 100 mg/kg, ip measured after 2 hrs; assay type: functional, organism-based; parameters: dose 100 mg/kg
Mus musculus [36] = test: Anticonvulsant activity in Carworth farms No.1 albino mouse assessed as protection against 6 Hz electric current-induced seizure at 100 mg/kg, ip measured after 4 hrs; assay type: functional, organism-based; parameters: dose 100 mg/kg
Mus musculus [37] = test: Neurotoxicity in Carworth farms No.1 albino mouse assessed as neurological impairment at 100 mg/kg, ip measured after 0.25 hrs; assay type: toxicity, organism-based; parameters: dose 100 mg/kg, route intraperitoneal; conditions: in vivo
Mus musculus [38] = test: Neurotoxicity in Carworth farms No.1 albino mouse assessed as neurological impairment at 100 mg/kg, ip measured after 1 hr; assay type: toxicity, organism-based; parameters: dose 100 mg/kg, route intraperitoneal; conditions: in vivo
Mus musculus [39] = test: Neurotoxicity in Carworth farms No.1 albino mouse assessed as neurological impairment at 100 mg/kg, ip measured after 2 hr; assay type: toxicity, organism-based; parameters: dose 100 mg/kg, route intraperitoneal; conditions: in vivo
Mus musculus [40] = test: Anticonvulsant activity in ip dosed Carworth farms No.1 albino mouse assessed as protection against 6 Hz electric current-induced seizure measured after 0.25 hrs; assay type: functional
Rattus norvegicus [41] = test: Anticonvulsant activity in Sprague-Dawley rat assessed as protection against pilocarpine-induced status at 600 mg/kg, ip measured after 0.5 hrs; assay type: functional, organism-based; parameters: dose 600 mg/kg
Rattus norvegicus [42] = test: Toxicity in Sprague-Dawley rat assessed as mortality at 600 mg/kg, ip measured after 0.5 hrs; assay type: organism-based; parameters: dose 600 mg/kg, route intraperitoneal; conditions: in vivo
Rattus norvegicus [43] = test: Toxicity in Sprague-Dawley rat assessed as body weight change in unprotected animal at 600 mg/kg, ip measured after 0.5 hrs; assay type: organism-based; parameters: dose 600 mg/kg, route intraperitoneal; conditions: in vivo
Rattus norvegicus [44] = test: Toxicity in Sprague-Dawley rat assessed as body weight change in protected animals at 600 mg/kg, ip measured after 0.5 hrs; assay type: organism-based; parameters: dose 600 mg/kg, route intraperitoneal; conditions: in vivo
Mus musculus [45] = species on record: Mus musculus; test: Anticonvulsant activity in maximum electroshock-induced Carworth farms No.1 albino mouse assessed as time of peak effect; assay type: functional
Mus musculus [46] = species on record: Mus musculus; test: Anticonvulsant activity in electric shock-induced Carworth farms No.1 albino mouse assessed as time of peak effect; assay type: functional

O=C1NC(=O)[C@H](c2ccccc2)N2CCCC[C@H]12
Activity (Mus musculus [1]): inactive | Activity (Mus musculus [2]): Active | Activity (Mus musculus [3]): Active | Activity (Mus musculus [4]): inactive | Activity (Mus musculus [5]): inactive | Activity (Mus musculus [6]): inactive | Activity (Mus musculus [7]): inactive | Activity (Mus musculus [8]): inactive | Activity (Mus musculus [9]): Active | Activity (Mus musculus [10]): inactive | Activity (Mus musculus [11]): inactive | Activity (Mus musculus [12]): inactive | Activity (Mus musculus [13]): Non-toxic | Activity (Mus musculus [14]): Toxic | Activity (Mus musculus [15]): Non-toxic | Activity (Mus musculus [16]): Non-toxic | Activity (Mus musculus [17]): Non-toxic | Activity (Mus musculus [18]): Toxic | ED50 (Mus musculus [19]): 95.7 mg/kg | ED50 (Mus musculus [20]): 99.2 mg/kg | TD50 at 0.25 h [21]: 151 mg/kg | Activity (Rattus norvegicus [22]): inactive | Activity (Rattus norvegicus [23]): inactive | Activity (Rattus norvegicus [24]): inactive | Activity (Rattus norvegicus [25]): inactive | Activity (Rattus norvegicus [26]): inactive | Activity (Rattus norvegicus [27]): Non-toxic | Activity (Rattus norvegicus [28]): Non-toxic | Activity (Rattus norvegicus [29]): Non-toxic | Activity (Rattus norvegicus [30]): Non-toxic | Activity (Rattus norvegicus [31]): Non-toxic | Activity (Mus musculus [32]): Active | Activity (Mus musculus [33]): Active | Activity (Mus musculus [34]): inactive | Activity (Mus musculus [35]): inactive | Activity (Mus musculus [36]): inactive | Activity (Mus musculus [37]): Non-toxic | Activity (Mus musculus [38]): Non-toxic | Activity (Mus musculus [39]): Non-toxic | ED50 (Mus musculus [40]): 32.3 mg/kg | Activity (Rattus norvegicus [41]): inactive | Activity (Rattus norvegicus [42]): Toxic | Activity (Rattus norvegicus [43]): -31 g | Activity (Rattus norvegicus [44]): -30 g | Time (Mus musculus [45]): 0.5 h | Time (Mus musculus [46]): 0.25 h

O=C1NC(=O)C(c2ccccc2)(c2ccccc2)N1 [PHENYTOIN]
ED50 (Mus musculus [19]): 5.64 mg/kg | ED50 (Mus musculus [20]): > 50 mg/kg | Time (Mus musculus [45]): 1 h
